Data from the supplement of paper PMC11061612.

Experiments:
Assay in all cases: combination Emax (second highest fraction inhibited in the dose matrix, 72 h); higher = more inhibition; extreme values may be limits of the assay
[1] = system: Hs-633T (Other Solid Carcinomas)
Outline: (§1)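 Bliss excess equals the observed combination effect minus the expected value EA + EB − EA·EB, where EA and EB are the effects of each agent alone. Combination Emax is the second-highest inhibition within the matrix. Inhibition was scaled from CellTiter-Glo 2.0 luminescence, with 0 set by vehicle wells and 1 by blank wells, after 72 hours of two-drug dosing of cells plated in 1536-well plates.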

[2] = system: MHH-PREB-1 (B-Cell Non-Hodgkin's Lymphoma)
Outline: as §1

[3] = system: CTB-1 (B-Cell Non-Hodgkin's Lymphoma)
Outline: as §1

[4] = system: KARPAS-231 (B-Cell Non-Hodgkin's Lymphoma)
Outline: as §1

[5] = system: HO-1-u-1 (Oral Cavity Carcinoma)
Outline: as §1

[6] = system: CAPAN-1 (Pancreatic Carcinoma)
Outline: as §1

[7] = system: OC-314 (Ovarian Carcinoma)
Outline: as §1

[8] = system: LB771-HNC (Head and Neck Carcinoma)
Outline: as §1

[9] = system: SW1116 (Colorectal Carcinoma)
Outline: as §1

HMV-II (Melanoma) = system: HMV-II (Melanoma)
Outline: as §1

Mewo (Melanoma) = system: Mewo (Melanoma)
Outline: as §1

[10] = system: LU-139 (Small Cell Lung Carcinoma)
Outline: as §1

NCI-H28 (Mesothelioma) = system: NCI-H28 (Mesothelioma)
Outline: as §1

[11] = system: SW626 (Colorectal Carcinoma)
Outline: as §1

[12] = system: MDA-MB-468 (Breast Carcinoma)
Outline: as §1

[13] = system: TE-4 (Esophageal Squamous Cell Carcinoma)
Outline: as §1

[14] = system: K5 (Thyroid Gland Carcinoma)
Outline: as §1

[15] = system: HDLM-2 (Hodgkin's Lymphoma)
Outline: as §1

[16] = system: KYSE-410 (Esophageal Squamous Cell Carcinoma)
Outline: as §1

[17] = system: OVCAR-8 (Ovarian Carcinoma)
Outline: as §1

SMILES	combination Emax [1]	combination Emax [2]	combination Emax [3]	combination Emax [4]	combination Emax [5]	combination Emax [6]	combination Emax [7]	combination Emax [8]	combination Emax [9]	combination Emax (HMV-II (Melanoma))	combination Emax (Mewo (Melanoma))	combination Emax [10]	combination Emax (NCI-H28 (Mesothelioma))	combination Emax [11]	combination Emax [12]	combination Emax [13]	combination Emax [14]	combination Emax [15]	combination Emax [16]	combination Emax [17]
COc1cccc2c1C(=O)c1c(O)c3c(c(O)c1C2=O)C[C@@](O)(C(=O)CO)C[C@@H]3O[C@H]1C[C@H](N)[C@H](O)[C@H](C)O1 [Doxorubicin] + Cc1cc2ncnn2cc1Nc1ncc2c(n1)n(C1CCOCC1)c(=O)n2C [AZD7648] (first compound max 1 µM, 7x7, partner max 10 µM)	0.932	0.974	0.911	0.956	0.832	0.511	1	0.193	0.146	0.907	0.599	0.905	0.605	0.419	0.638	0.443	0.823	0.545	0.117	0.923
CC1(C)CCC(CN2CCN(c3ccc(C(=O)NS(=O)(=O)c4ccc(NCC5CCOCC5)c([N+](=O)[O-])c4)c(Oc4cnc5[nH]ccc5c4)c3)CC2)=C(c2ccc(Cl)cc2)C1 [Venetoclax] + Cn1cnc2c(F)c(Nc3ccc(Br)cc3Cl)c(C(=O)NOCCO)cc21 [Selumetinib] (first compound max 1 µM, 7x7, partner max 3 µM)	0.228	0.147	0.105	0.812	0.286	0.314	0.134	0.132	0.453	0.779	0.528	0.307	0.142	0.507	0.315	0.114	0.742	0.296	0.222	0.153
Cc1cc2ncnn2cc1Nc1ncc2c(n1)n(C1CCOCC1)c(=O)n2C [AZD7648] + CN(C)CCCOc1ccc(-c2ccc3ncc4c(c3c2)n(C2CCOCC2)c(=O)n4C)cn1 [AZD0156] (first compound max 10 µM, 7x7, partner max 1 µM)	0.37	0.511	0.404	0.208	0.39	0.31	0.348	0.299	0.19	0.342	0.285	0.228	0.307	0.284	0.353	0.147	0.501	0.368	0.178	0.213
COc1cccc(OCCCN)c1-c1cc(Nc2cnc(C#N)cn2)n[nH]1 [Prexasertib] + Cc1cc2ncnn2cc1Nc1ncc2c(n1)n(C1CCOCC1)c(=O)n2C [AZD7648] (first compound max 1 µM, 7x7, partner max 10 µM)	0.948	0.947	0.922	0.984	0.993	0.585	0.946	0.596	0.463	0.525	0.516	0.504	0.639	0.75	0.533	0.597	0.704	0.583	0.504	0.984
CCc1c2c(nc3ccc(O)cc13)-c1cc3c(c(=O)n1C2)COC(=O)[C@]3(O)CC [SN-38] + CN(C)CCCOc1ccc(-c2ccc3ncc4c(c3c2)n(C2CCOCC2)c(=O)n4C)cn1 [AZD0156] (first compound max 0.3 µM, 7x7, partner max 1 µM)	0.838	0.701	0.859	1	0.676	0.781	1	0.0261	0.199	0.587	0.248	0.627	0.307	0.428	0.735	0.402	0.512	0.341	0.254	0.849
CCc1c2c(nc3ccc(O)cc13)-c1cc3c(c(=O)n1C2)COC(=O)[C@]3(O)CC [SN-38] + O=C(c1cc(Cc2n[nH]c(=O)c3ccccc23)ccc1F)N1CCN(C(=O)C2CC2)CC1 [Olaparib] (first compound max 0.3 µM, 7x7, partner max 10 µM)	0.842		0.837	1	0.695	0.818	1	0.0947	0.214	0.641	0.338	0.767	0.429	0.559	0.773	0.402	0.505	0.473	0.423	
CN(CCO)CC[C@H](CSc1ccccc1)Nc1ccc(S(=O)(=O)NC(=O)c2ccc(N3CCC([C@@H](O)c4ccccc4-c4ccc(Cl)cc4)CC3)cc2)cc1S(=O)(=O)C(F)(F)F [AZD4320] + C=CCn1c(=O)c2cnc(Nc3ccc(N4CCN(C)CC4)cc3)nc2n1-c1cccc(C(C)(C)O)n1 [AZD1775] (first compound max 1 µM, partner max 1 µM)	0.856		0.862	1	0.897	0.732	0.619	0.644	0.264	0.47	0.548	0.927	0.437	0.748	0.799	0.466	0.485	0.989	0.796	0.908
Cc1c2c(nn1C)CSCc1cc(n(C)n1)CSc1cc(c3ccccc3c1)OCCCc1c(C(=O)O)n(C)c3c-2c(Cl)ccc13 [AZD5991] + C1CN(CCC1(C(=O)N[C@@H](CCO)C2=CC=C(C=C2)Cl)N)C3=NC=NC4=C3C=CN4 [Capivasertib] (first compound max 1 µM, 7x7, partner max 3 µM)	0.216	0.101	0.42	1	0.837	0.203	0.297	0.587	0.102	0.198	0.199	0.268		0.25	0.585	0.81	0.478	1	0.174	0.169
CC(=O)c1c(C)c2cnc(Nc3ccc(N4CCNCC4)cn3)nc2n(C2CCCC2)c1=O [Palbociclib] + CC1(C)CCC(CN2CCN(c3ccc(C(=O)NS(=O)(=O)c4ccc(NCC5CCOCC5)c([N+](=O)[O-])c4)c(Oc4cnc5[nH]ccc5c4)c3)CC2)=C(c2ccc(Cl)cc2)C1 [Venetoclax] (first compound max 10 µM, 7x7, partner max 1 µM)	0.49	0.412		0.889	0.271	0.21	0.334	0.149	0.04	0.494	0.437	0.37	0.389	0.153	0.261	0.217	0.452	0.731	0.136	0.19
C[C@@H]1COCCN1c1cc(C2([S@](C)(=N)=O)CC2)nc(-c2ccnc3[nH]ccc23)n1 [AZD6738] + O=C(c1cc(Cc2n[nH]c(=O)c3ccccc23)ccc1F)N1CCN(C(=O)C2CC2)CC1 [Olaparib] (first compound max 10 µM, 7x7, partner max 10 µM)	0.821	0.679	0.777	0.723	0.793	0.442	0.872	0.483	0.262	0.374	0.548	0.418	0.408	0.455		0.527	0.627	0.437	0.239	0.935
Cc1c2c(nn1C)CSCc1cc(n(C)n1)CSc1cc(c3ccccc3c1)OCCCc1c(C(=O)O)n(C)c3c-2c(Cl)ccc13 [AZD5991] + CN(C)CCCOc1ccc(-c2ccc3ncc4c(c3c2)n(C2CCOCC2)c(=O)n4C)cn1 [AZD0156] (first compound max 1 µM, 7x7, partner max 1 µM)	0.276		0.34	1	0.245	0.252	0.239	0.442	0.173	0.256	0.225	0.21	0.194	0.223	0.452	0.481	0.183	0.985	0.236	0.219
NC1(C(=O)N[C@@H](CCO)c2ccc(Cl)cc2)CCN(c2ncnc3[nH]ccc23)CC1 [Capivasertib] + COc1nnc2ccc(N3CCC(c4ccc(OCCN5CCN(C)C(=O)[C@H]5C)cc4)CC3)nn12 [AZD5153] (first compound max 10 µM, 7x7, partner max 1 µM)	0.519	0.384		0.229	0.91	0.358	0.818	0.875	0.245	0.588	0.433	0.864	0.453	0.642	0.666	0.851	0.929	0.389	0.56	0.732
NC1(C(=O)N[C@@H](CCO)c2ccc(Cl)cc2)CCN(c2ncnc3[nH]ccc23)CC1 [Capivasertib] + CC(C)n1c(=O)n(C)c2cnc3cc(F)c(-c4ccc(OCCCN5CCCCC5)nc4)cc3c21 [AZD1390] (first compound max 10 µM, 7x7, partner max 0.3 µM)	0.258	0.21		0.215	0.746	0.044	0.421	0.395	0.215	0.358	0.365	0.0539	0.281	0.273	0.518	0.616	0.405	0.298	0.327	0.255
